Reference: ChEMBL document CHEMBL1153284, “N-(3-fluoro-4-(2-arylthieno[3,2-b]pyridin-7-yloxy)phenyl)-2-oxo-3-phenylimidazolidine-1-carboxamides: a novel series of dual c-Met/VEGFR2 receptor tyrosine kinase inhibitors” (Bioorg Med Chem Lett, 2009)
Active and inactive are the calls of the source. No cut-off for these calls is given here.

Columns and labels:
[1] = target: T1, Hepatocyte growth factor receptor (Homo sapiens, UniProt P08581); conditions: 293t
Description: Inhibition of TPR-fused Met phosphorylation expressed in human 293T cells by ELISA

[2] = target: Vascular endothelial growth factor receptor 2 (Homo sapiens, UniProt P35968); experiment: Inhibition of GST-fused recombinant VGFR2 catalytic domain expressed in baculovirus-infected Sf9 cells after 10 mins by DELFIA assay
[3] = target: T1, Hepatocyte growth factor receptor; experiment: biochemical
Description: Inhibition of GST-fused recombinant c-Met catalytic domain expressed in baculovirus-infected Trichoplusia ni Hi5 cells after 30 mins by DELFIA assay

[4] = Bioavailability in rat at 4.28 to 4.98 mg/kg, po; format: ADME, organism-based; conditions: in vivo
[5] = Half life in rat at 2.17 to 2.86 mg/kg, iv; format: ADME, organism-based; set-up: dose 2.17-2.86 mg/kg, route intravenous; conditions: in vivo
[6] = target: Macrophage-stimulating protein receptor (Homo sapiens) (UniProt Q04912); experiment: Inhibition of Ron at 100 nM
HUVEC [7] = experiment: Inhibition of VEGF-dependent proliferation in HUVEC; format: functional, cell-based; conditions: Homo sapiens
HUVEC [8] = experiment: Inhibition of tubule formation in HUVEC assessed as tubule length at 100 nM by angiogenesis assay in presence of VEGF; format: functional; conditions: Homo sapiens
[9] = target: T2, Aurora kinase A (Homo sapiens) (UniProt O14965); experiment: Inhibition of Aurora A at 100 nM
T2 sequence (whole entry): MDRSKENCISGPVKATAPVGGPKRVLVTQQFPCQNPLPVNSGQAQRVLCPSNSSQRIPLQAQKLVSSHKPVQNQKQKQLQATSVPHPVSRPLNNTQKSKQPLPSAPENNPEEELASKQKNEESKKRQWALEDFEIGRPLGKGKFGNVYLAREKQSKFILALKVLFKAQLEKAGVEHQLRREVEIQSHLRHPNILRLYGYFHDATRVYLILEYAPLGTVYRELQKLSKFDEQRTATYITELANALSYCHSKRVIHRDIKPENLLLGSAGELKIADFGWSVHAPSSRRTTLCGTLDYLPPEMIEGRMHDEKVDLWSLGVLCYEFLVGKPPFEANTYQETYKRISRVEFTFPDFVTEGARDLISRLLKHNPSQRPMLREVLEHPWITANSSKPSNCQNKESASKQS

[10] = target: Vascular endothelial growth factor receptor 3 (Homo sapiens) (UniProt P35916); experiment: Inhibition of VEGFR3 at 100 nM
[11] = target: Angiopoietin-1 receptor (Homo sapiens) (UniProt Q02763); experiment: Inhibition of Tie2 at 100 nM
[12] = target: Receptor-type tyrosine-protein kinase FLT3 (Homo sapiens) (UniProt P36888); experiment: Inhibition of FLT3 at 100 nM
HCT-116 = experiment: Antiproliferative activity against c-Met-independent human HCT116 cells after 72 hrs by MTT assay; format: functional, cell-based; conditions: HCT-116, 72 h
HOS-TE85 = experiment: Antiproliferative activity against human MNNG-HOS cells expressing TPR-fused Met after 72 hrs by MTT assay; format: functional, cell-based; conditions: HOS-TE85, 72 h
[13] = Inhibition of VEGF-dependent ERK phosphorylation
MDA-MB-231 = experiment: Antiproliferative activity against c-Met-independent human MDA-MB-231 cells after 72 hrs by MTT assay; format: functional, cell-based; conditions: MDA-MB-231, 72 h
MKN-45 [14] = experiment: Antitumor activity against human MKN45 cells xenografted in mouse assessed as regression of tumor growth at 40 mg/kg, po administered once daily for 12 days; format: functional, organism-based; set-up: dose 40 mg/kg
[15] = target: Vascular endothelial growth factor receptor 1 (Homo sapiens) (UniProt P17948); experiment: Inhibition of VEGFR1 at 100 nM
HUVEC [16] = experiment: Inhibition of tubule growth in HUVEC by angiogenesis assay; format: functional, cell-based; conditions: Homo sapiens
MKN-45 [17] = experiment: Antiproliferative activity against human MKN45 cells expressing c-Met after 72 hrs by MTT assay; format: functional, cell-based; conditions: MKN-45, 72 h

| Structure (SMILES) | IC50 [1] | IC50 [2] | IC50 [3] | other results |
| --- | --- | --- | --- | --- |
| CC(C)n1cnc(-c2cc3nccc(Oc4ccc(NC(=O)C5CCN(c6ccccc6)C5=O)cc4F)c3s2)c1 (stereo not drawn) | 210 nM | 16 nM | 39 nM |  |
| Cn1cnc(-c2cc3nccc(Oc4ccc(NC(=S)N5CCN(c6ccccc6)C5=O)cc4F)c3s2)c1 | 80 nM | 12 nM | 24 nM |  |
| O=C(Nc1ccc(Oc2ccnc3cc(-c4cn(CCN5CCCC5)cn4)sc23)c(F)c1)N1CCN(c2ccccc2)C1=O | 320 nM | 20 nM | 35 nM |  |
| CCn1ccnc1-c1cc2nccc(Oc3ccc(NC(=O)N4CCN(c5ccccc5)C4=O)cc3F)c2s1 | 140 nM | 26 nM | 24 nM |  |
| O=C(Nc1ccc(Oc2ccnc3cc(-c4cn(CCCN5CCCC5)cn4)sc23)c(F)c1)N1CCN(c2ccccc2)C1=O | 300 nM | 8 nM | 21 nM |  |
| Cn1cnc(-c2cc3nccc(Oc4ccc(NC(=O)C5CCN(c6ccccc6)C5=O)cc4F)c3s2)c1 (stereo not drawn) | 370 nM | 39 nM | 35 nM | bioavailability [4]: 14%; half-life [5]: 1.1 h |
| Cn1cnc(-c2cc3nccc(Oc4ccc(NC(=O)N5CCN(c6ccccc6)C5=O)cc4F)c3s2)c1 |  | 8 nM |  | bioavailability [4]: 13%; half-life [5]: 2.3 h |
| CCn1cnc(-c2cc3nccc(Oc4ccc(NC(=O)N5CCN(c6ccccc6OC)C5=O)cc4F)c3s2)c1 | 60 nM | 14 nM | 26 nM |  |
| CN(C)[C@H]1CCN(C(=O)c2cc3nccc(Oc4ccc(NC(=O)N5CCN(c6ccccc6)C5=O)cc4F)c3s2)C1 | 230 nM | 23 nM | 42 nM |  |
| CN1CCN(Cc2ccc(-c3cc4nccc(Oc5ccc(NC(=O)N6CCN(c7ccccc7)C6=O)cc5F)c4s3)cc2)CC1 | 250 nM | 12 nM | 29 nM |  |
| CC(=O)c1cccc(-c2cc3nccc(Oc4ccc(NC(=O)N5CCN(c6ccccc6)C5=O)cc4F)c3s2)c1 | 270 nM | 880 nM | 200 nM |  |
| CCn1cnc(-c2cc3nccc(Oc4ccc(NC(=O)N5CCN(c6ccc(F)cc6)C5=O)cc4F)c3s2)c1 | 50 nM | 7 nM | 27 nM | inhibition [6]: 100%; IC50 (HUVEC [7]): 6 nM; inhibition at 0.1 µM (HUVEC [8]): 98%; inhibition [9]: 9%; inhibition [10]: 99%; inhibition [11]: 99%; inhibition [12]: 80%; IC50 (HCT-116): 13000 nM; IC50 (HOS-TE85): 33 nM; IC50 [13]: 1 nM; IC50 (MDA-MB-231): 20000 nM; Activity (MKN-45 [14]): Active; bioavailability [4]: 37%; inhibition [15]: 99%; half-life [5]: 6.3 h; IC50 (HUVEC [16]): 6 nM; IC50 (MKN-45 [17]): 10 nM |
| CN1CCN(CCN(C)Cc2ccc(-c3cc4nccc(Oc5ccc(NC(=O)N6CCN(c7ccccc7)C6=O)cc5F)c4s3)cc2)CC1 | 830 nM | 3 nM | 28 nM |  |
| CC(C)n1cnc(-c2cc3nccc(Oc4ccc(NC(=O)C5CC(=O)N(c6ccccc6)C5)cc4F)c3s2)c1 (stereo not drawn) |  | 800 nM | 300 nM |  |
| Cn1cnc(-c2cc3nccc(Oc4ccc(NC(=O)C5(C)CCN(c6ccccc6)C5=O)cc4F)c3s2)c1 (stereo not drawn) | 1000 nM | 230 nM | 67 nM |  |
| CN1CC=C(c2cc3nccc(Oc4ccc(NC(=O)N5CCN(c6ccccc6)C5=O)cc4F)c3s2)CC1 | 300 nM | 170 nM | 33 nM |  |
| CNC(=O)N1CCN(Cc2ccc(-c3cc4nccc(Oc5ccc(NC(=O)N6CCN(c7ccccc7)C6=O)cc5F)c4s3)cc2)CC1 | 80 nM | 8 nM | 16 nM |  |
| Cn1ccnc1-c1cc2nccc(Oc3ccc(NC(=O)N4CCN(c5ccccc5)C4=O)cc3F)c2s1 | 120 nM | 31 nM | 26 nM |  |
| Cn1cnc(-c2cc3nccc(Oc4ccc(NC(=O)CC(=O)Nc5ccccc5)cc4F)c3s2)c1 | 310 nM | 15 nM | 28 nM |  |
| Cn1cnc(-c2cc3nccc(Oc4ccc(NC(=S)NC(=O)Cc5ccccc5)cc4F)c3s2)c1 |  | 26 nM |  | half-life [5]: 1.2 h |
| CCn1cnc(-c2cc3nccc(Oc4ccc(NC(=O)N5CCN(c6ccccc6F)C5=O)cc4F)c3s2)c1 | 100 nM | 3 nM | 21 nM |  |
| Cn1cnc(-c2cc3nccc(Oc4ccc(NC(=O)N5CCN(c6ccccc6)C5=S)cc4F)c3s2)c1 | > 10000 nM | 1800 nM | 2000 nM |  |
| CCn1cnc(-c2cc3nccc(Oc4ccc(NC(=O)N5CCN(c6ccccc6)C5=O)cc4F)c3s2)c1 | 40 nM | 12 nM | 25 nM |  |
| CN(C)CCn1cnc(-c2cc3nccc(Oc4ccc(NC(=O)N5CCN(c6ccccc6)C5=O)cc4F)c3s2)c1 | 60 nM | 14 nM | 34 nM |  |
| Cn1cnc(-c2cc3nccc(Oc4ccc(NC(=O)C5(C(=O)Nc6ccccc6)CC5)cc4F)c3s2)c1 | 60 nM | 9 nM | 28 nM |  |
| O=C(Nc1ccc(Oc2ccnc3cc(-c4ccc(CN5CCNCC5)cc4)sc23)c(F)c1)N1CCN(c2ccccc2)C1=O | 420 nM | 11 nM | 22 nM |  |
| CN(C(=O)C1(C(=O)Nc2ccc(Oc3ccnc4cc(-c5cn(C)cn5)sc34)c(F)c2)CC1)c1ccccc1 | 1440 nM | 57 nM | 1000 nM |  |
| CN(C(=O)CC(=O)Nc1ccc(Oc2ccnc3cc(-c4cn(C)cn4)sc23)c(F)c1)c1ccccc1 | 160 nM | 10 nM | 43 nM |  |
| Cn1cnc(-c2cc3nccc(Oc4ccc(NC(=O)NC(=O)Cc5ccccc5)cc4F)c3s2)c1 |  | 37 nM | 25 nM |  |
